Measured values reported in patent publication US20030092037A1, “Elk1 phosphorylation related gene” (priority 2001, published 2003).

System: MAP kinase cascade activating protein according to SEQ ID NO: 4, 6, 12, 16, 18, 22, 26, 28, 30, 44, 50, 52, 60, 68, 72, 104, 110, 112, 116, 122, 132, 142, 146 …
Test: Screening for inhibitors in 293-EBNA reporter systems expressing MAP kinase cascade activating proteins
Assay type: cell-based, human
Settings: compound 10 μM; 50 ng expression plasmid; 24 hours; all 27 SEQ ID NO systems
Experimental: (in the presence of 5% CO2). Then, using FuGENE6 (Roche), 50 ng of each of the expression plasmids obtained in Example 2 above which comprise a gene encoding the MAP kinase cascade activating protein according to SEQ ID NO: 4, 6, 12, 16, 18, 22, 26, 28, 30, 44, 50, 52, 60, 68, 72, 104, 110, 112, 116, 122, 132, 142, 146, 148, 150, 152 or 154 were respectively co-transfected in a well with 60 ng of pFR-Luc ([…]), 0.25 ng of pFA2-Elk1 ([…]), 5 ng of pcDNA 3.1 (+) (INVITROGEN) into which human p38 gene had been incorporated and 30 ng of pcDNA 3.1 (+) (INVITROGEN) into which human JNJ1 β 1 gene had been incorporated. The method used for introduction was in accordance with the attached protocol. After culturing for 2 hours at 37° C., any one of 1000 types of compound that were held in stock, was added to a final concentration of 10 μM per well, and after further culturing for 24 hours at 37° C., reporter activity, which reflects MAP kinase cascade activition, was measured by Picagene LT2 (purchased from Toyo Ink Manufacturing) in accordance with the manufacturer's instructions. Using a well to which no compound was added as a control, compounds were screened to identify a compound which reduced reporter activity in the well to which it was added to 50% or lower. […]

CN[C@@H]1C[C@H]2O[C@@](C)([C@@H]1OC)n1c3ccccc3c3c4c(c5c6ccccc6n2c5c31)C(=O)NC4 [staurosporine]
reporter activity relative to control well to which no compound was added: ≤ 50%
